# Data from patent publication US20260176277A1, “COMPOUNDS AND COMPOSITIONS AS eIF4E INHIBITORS AND USES THEREOF” (Ribometrix, Inc., priority 2022, published 2026).
# Legend:
# [1] = target: T1, human eIF4E protein (Homo sapiens, UniProt P06730); assay: Biochemical competitive binding assay (TR-FRET competition); conditions: recombinant 6xHIS-tagged human eIF4E, EDA-m7GDP-ATTO-647N probe; read-out: hEIF4E TR-FRET IC50
# T1 construct: purchased Novus NBP-45314
# Protocol: The potencies of compounds binding to human eIF4E protein were measured using a 384-well time-resolved fluorescence resonance energy transfer (TR-FRET) competition assay. The assay was performed in assay buffer containing 50 mM HEPES pH 7.5, 100 mM KCl, 0.02% Tween-20, and 0.1 mg/mL bovine serum albumin (BSA). The reaction volume was 10 μL and each reaction contained 4 nM recombinant 6×HIS-tagged human eIF4E protein (Novus, NBP-45314), 5 nM EDA-m7GDP-ATTO-647N (Jena Bioscience, NU-827-647N), 2.5 nM Europium conjugated Anti-6×HIS antibody (PerkinElmer, AD0402) and varying concentrations of compound. The final DMSO concentration was 1%.
# Compounds were prepared using 11-point, 4-fold serial dilutions in DMSO and 100 nL of diluted compounds were transferred to 384-well assay-ready plates. Recombinant human eIF4E protein at 2× final concentration (8 nM) was pre-incubated with Eu-anti-6×HIS antibody at 2× final concentration (5 nM) for 5 minutes, then 5 μL of the protein solution was added to assay-ready plates. The protein/compound mix was incubated for 15 minutes, after which 5 μL of a solution containing EDA-m7GDP-ATTO-647N probe at 2× final concentration (10 nM) was added. After a subsequent 15-minute incubation, time-resolved fluorescence of assay plates was measured using a Clariostar Plus microplate reader (BMG Labtech) and TR-FRET values were calculated by taking a ratio of the 665 to 620 wavelength signals. After normalization to the average of DMSO control and maximum inhibition control wells, concentration-response data were plotted and standard 4-parameter curve fitting (PEI Signals) was utilized to determine IC50 values.
# [2] = system: cap-dependent translation in Flp-In-293 reporter cells; assay: Cellular cap-dependent translation inhibition dual luciferase assay (DLA); type: cell-based; conditions: Homo sapiens, ratio of Fluc (cap-dependent) to Rluc (IRES) luminescence, 24 hours of compound treatment
# T1 sequence (P06730 whole entry): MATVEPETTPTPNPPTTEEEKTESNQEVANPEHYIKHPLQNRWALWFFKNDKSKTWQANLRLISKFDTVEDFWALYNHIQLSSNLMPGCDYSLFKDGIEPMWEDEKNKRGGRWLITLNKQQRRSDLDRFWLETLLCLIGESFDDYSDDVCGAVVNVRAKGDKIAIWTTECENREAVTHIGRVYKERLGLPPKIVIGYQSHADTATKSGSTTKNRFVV
Structure (SMILES),IC50 [1],IC50 [2]
Cc1nc2c(c(=O)n1CCOc1ccc(Cl)cc1-c1cccc(C(=O)O)c1)CN(C)CC2 [Compound 1],< 400 nM,
Cc1nc2c(c(=O)n1CCOc1ccc(Cl)cc1-c1ccc(C(=O)O)cc1)CN(C)CC2 [Compound 2],10000 to 100000 nM,
CN1CCc2ncn(CCOc3ccc(Cl)cc3-c3cccc(C(=O)O)c3)c(=O)c2C1 [Compound 3],10000 to 100000 nM,
CCN1CCc2nc(C)n(CCOc3ccc(Cl)cc3-c3cccc(C(=O)O)c3)c(=O)c2C1 [Compound 4],< 400 nM,10 to 20 µM
Cc1nc2c(c(=O)n1CCOc1ccc(Cl)cc1-c1cccc(C(=O)O)c1)CN(C1CCOCC1)CC2 [Compound 5],400 to 10000 nM,> 20 µM
COCCN1CCc2nc(C)n(CCOc3ccc(Cl)cc3-c3cccc(C(=O)O)c3)c(=O)c2C1 [Compound 6],400 to 10000 nM,
CC(=O)N1CCc2nc(C)n(CCOc3ccc(Cl)cc3-c3cccc(C(=O)O)c3)c(=O)c2C1 [Compound 7],400 to 10000 nM,
Cc1nc2c(c(=O)n1CCOc1ccc(Cl)cc1-c1ccnc3c(C(=O)O)csc13)CN(C)CC2 [Compound 8],< 400 nM,< 10 µM
Cc1nc2c(c(=O)n1CCOc1ccc(Cl)cc1-c1ccnc(C(=O)O)c1)CN(C)CC2 [Compound 9],< 400 nM,> 20 µM
COCCN1CCc2nc(C)n(CCOc3ccc(Cl)cc3-c3ccnc(C(=O)O)c3)c(=O)c2C1 [Compound 10],< 400 nM,> 20 µM
Cc1nc2c(c(=O)n1CCOc1ccc(Cl)cc1-c1cccc(C(=O)O)c1)CN(C1COC1)CC2 [Compound 11],10000 to 100000 nM,> 20 µM
Cc1nc2c(c(=O)n1CCOc1ccc(Cl)cc1-c1cccc(C(=O)O)c1F)CN(C)CC2 [Compound 12],< 400 nM,> 20 µM
Cc1nc2c(c(=O)n1CCOc1ccc(Cl)cc1-c1ccnc(C(=O)NS(C)(=O)=O)c1)CN(C)CC2 [Compound 13],< 400 nM,> 20 µM
Cc1nc2c(c(=O)n1CCOc1ccc(Cl)cc1-c1ccnn3c(C(=O)O)ccc13)CN(C)CC2 [Compound 14],< 400 nM,< 10 µM
Cc1nc2c(c(=O)n1CCOc1ccc(Cl)cc1-c1ccnc(-c3n[nH]c(=O)o3)c1)CN(C)CC2 [Compound 15],400 to 10000 nM,> 20 µM
Cc1nc2c(c(=O)n1CCOc1ccc(Br)cc1-c1cccc(C(=O)O)c1)CN(C)CC2 [Compound 16],< 400 nM,> 20 µM

Structure (SMILES),IC50 [1],IC50 [2]
Cc1nc2c(c(=O)n1CCOc1cnc(Cl)cc1-c1ccnc(C(=O)O)c1)CN(C)CC2 [Compound 17],400 to 10000 nM,> 20 µM
Cc1cc(-c2cc(Cl)ccc2OCCn2c(C)nc3c(c2=O)CN(c2ccccc2F)CC3)c2scc(C(=O)O)c2n1 [Compound 18],< 400 nM,< 10 µM
Cc1cc(-c2cc(Cl)ccc2OCCn2c(C)nc3c(c2=O)CN(c2cc(F)ccc2F)CC3)c2scc(C(=O)O)c2n1 [Compound 19],< 400 nM,< 10 µM
Cc1cc(-c2cc(Cl)ccc2OCCn2c(C)nc3c(c2=O)CN(Cc2ccncc2)CC3)c2scc(C(=O)O)c2n1 [Compound 20],< 400 nM,< 10 µM
Cc1cc(-c2cc(Cl)ccc2OCCn2c(C)nc3c(c2=O)CN(c2ccnc4ccncc24)CC3)c2scc(C(=O)O)c2n1 [Compound 21],< 400 nM,< 10 µM
Cc1cc(-c2cc(Cl)ccc2OCCn2c(C)nc3c(c2=O)CN(c2ccn4ncnc4c2)CC3)c2scc(C(=O)O)c2n1 [Compound 22],< 400 nM,10 to 20 µM
"COc1cc(N2CCc3nc(C)n(CCOc4ccc(Cl)cc4-c4cc(C)nc5c(C(=O)O)csc45)c(=O)c3C2)ccn1 [Compound 23, 7-[5-chloranyl-2-[2-[6-(2-methoxy-4-pyridyl)-2-methyl-4-oxidanylidene-7,8-dihydro-5H-pyrido[4,3-d]pyrimidin-3-yl]ethoxy]phenyl]-5-methyl-thieno[3,2-b]pyridine-3-carboxylic acid; 2,2,2-tris(fluoranyl) acetic acid]",< 400 nM,< 10 µM
"Cc1cc(-c2cc(Cl)ccc2OCCn2c(C)nc3c(c2=O)CN(CC(F)(F)F)CC3)c2scc(C(=O)O)c2n1 [Compound 24, 7-[5-chloranyl-2-[2-[2-methyl-4-oxidany-lidene-6-[2,2,2-tris(fluoranyl)ethyl]-7,8-dihydro-5H-pyrido[4,3-d]pyrimidin-3-yl]ethoxy]phenyl]-5-methyl-thieno[3,2-b]pyridine-3-carboxylic acid; 2,2,2-tris(fluoranyl) acetic acid]",< 400 nM,< 10 µM
"Cc1cc(-c2cc(Cl)ccc2OCCn2c(C)nc3c(c2=O)CN(CC(F)(F)F)CC3)c2scc(C(=O)NS(C)(=O)=O)c2n1 [Compound 25, 7-[5-chloranyl-2-[2-[2-methyl-4-oxidanylidene-6-[2,2,2-tris(fluoranyl)ethyl]-7,8-dihydro-5H-pyrdo[4,3-d]pyrimidin-3-yl]ethoxy]phenyl]-5-methyl-N-methylsulfonyl-thieno[3,2-b]pyridine-3-carboxamide; 2,2,2-tris(fluoranyl) acetic acid]",< 400 nM,< 10 µM
"Cc1cc(-c2cc(Cl)ccc2OCCn2c(C)nc3c(c2=O)CN(C)CC3)c2ccc(C(=O)O)n2n1 [Compound 26, 4-[5-chloranyl-2-[2-[2,6-di(methyl)-4-oxidanylidene-7,8-dihydro-5H-pyrido[4,3-d]pyrimidin-3-yl]ethoxy]phenyl]-2-methyl-pyrrolo[1,2-b]pyridazine-7-carboxylic acid]",< 400 nM,< 10 µM
"Cc1cc(-c2cc(Cl)ccc2OCCn2c(C)nc3c(c2=O)CN(C)CC3)c2ccc(C(=O)NS(C)(=O)=O)n2n1 [Compound 27, 4-[5-chloranyl-2-[2-[2,6-di(methyl)-4-oxidanylidene-7,8-dihydro-5H-pyrido[4,3-d]pyrimidin-3-yl]ethoxy]phenyl]-2-methyl-N-methylsulfonyl-pyrrolo[1,2-b]pyridazine-7-carboxamide]",< 400 nM,< 10 µM
"Cc1cc(-c2cc(Cl)ccc2OCCn2c(C)nc3c(c2=O)CN(C)CC3)c2scc(C(=O)NS(C)(=O)=O)c2n1 [Compound 28, 7-[5-chloranyl-2-[2-[2,6-di(methyl)-4-oxidanylidene-7,8-dihydro-5H-pyrido[4,3-d]pyrimidin-3-yl]ethoxy]phenyl]-5-methyl-N-methylsulfonyl-thieno[3,2-b]pyridine-3-carboxamide; 2,2,2-tris(fluoranyl)acetic acid]",< 400 nM,< 10 µM
"Cc1cc(-c2cc(Cl)ccc2OCCn2c(C)nc3c(c2=O)CN(C)CC3)c2scc(C(=O)O)c2n1 [Compound 29, 7-[5-chloranyl-2-[2-[2,6-di(methyl)-4-oxidanylidene-7,8-dihydro-5H-pyrido[4,3-d]pyrimidin-3-yl]ethoxy]phenyl]-5-methyl-thieno[3,2-b]pyridine-3-carboxylic acid]",< 400 nM,< 10 µM
"Cc1cc(-c2cc(Cl)ccc2OCCn2c(C)nc3c(c2=O)CN(C)CCO3)c2scc(C(=O)O)c2n1 [Compound 30, 7-[5-chloranyl-2-[2-[2,6-di(methyl)-4-oxidanylidene-7,8-dihydro-5H-pyrimido[5,4-f][1,4]oxazepin-3-yl]ethoxy]phenyl]-5-methyl-thieno[3,2-b]pyridine-3-carboxylic acid; 2,2,2-tris(fluorenyl) acetic acid]",< 400 nM,< 10 µM
Cc1nc2c(c(=O)n1CC#Cc1ccc(Cl)cc1-c1ccnc3c(C(=O)O)csc13)CN(C)CC2 [Compound 31],10000 to 100000 nM,> 20 µM
